Test results: patent US20120245108A1, “METHOD OF MODULATING COMPLEMENT FACTOR B (CFB) EXPRESSION IN CELLS” (KAOHSIUNG MEDICAL UNIVERSITY, priority 2011, published 2012)

How the values were obtained:
phospho-STAT3(Tyr705) = experiment: Phospho-STAT3(Tyr705) immunoblotting in ARPE-19 cells; assay type: cell-based, human
Protocol: (§1) ARPE-19 (CRL-2302, human retinal pigment epithelial cells, American Type Culture Collection, Manassas, Va.) cells were cultured in 1:1 mixture of Dulbecco's modified Eagle's medium and HAM F-12 nutrient mixture supplemented with 10% fetal bovine serum at 37° C., 5% CO2, and 90% relative humidity. Confluent cells (90% confluence) were used throughout the experiments. Culture materials were obtained from Gibco-BRL (Rockville, Md.). Tannic acid, AG490 and all other reagents were obtained from Sigma Chemical Co. (St. Louis, Mo.).
(§2) The source of UVB radiation was performed using the EL series of UV lamp (UVP Inc., San Gabriel, Calif., USA). One hundred percent energy emission was at wavelength 302 nm with a radiation intensity of 1.04 mW/cm^2 in a lamp and a target distance of 15 cm was measured by a UVX Digital Radiometer (UVP Inc.).
Total cell lysates were resolved by 10% sodium dodecyl sulfate-polyacryl amide gel electrophoresis, transferred to membranes and blocked, and then probed phospho-STAT3(Tyr705) and STAT3 (Cell Signaling Technology, Danvers, Mass.) antibodies. To control for protein loading, all blots were probed with GAPDH (Millipore, Billerica, Mass.) as well. The bands were detected using the enhanced chemiluminescence system (Millipore, Billerica, Mass.).

CFB mRNA = CFB mRNA expression in ARPE-19 cells by real-time RT-PCR; assay type: cell-based, human; details: for UVB-induced CFB mRNA expression: 10 mJ/cm^2 UVB, 24 h, ARPE-19 cells, TA 25 μM, AG490 40 μM in 0.2% DMSO, normalized to GAPDH
Protocol: as §1, §2
The total RNA was isolated from ARPE-19 cells and cells exposed to UVB radiation (5-15 mJ/cm^2) for 24 hr using TRIzol Reagent (invitrogen). One μg of total RNA was subject to reverse transcriptase RT-PCR by using RT-PCR kit (Applied Biosystems). The primers used for detecting mRNA for IL-6 were 5′-CCTGCAAG ACCATCGACATG-3′ (forward, SEQ ID NO. 1) and 5′-[…]-3′ (reverse, SEQ ID NO. 2); CFB were 5′-[…]-3′ (forward, SEQ ID NO. 3) and 5′-[…]-3 (reverse, SEQ ID NO. 4); STAT3 were 5′-[…]-3′ (forward, SEQ ID NO. 5) and 5′-[…]-3′ (reverse, SEQ ID NO. 6); JAK2 were 5′-GCTCAGTGGCGGCATGAT-3′ (forward, SEQ ID NO. 7) and 5′-[…]-3′ (reverse, SEQ ID NO. 8); GAPDH were 5′-AACAGCGACACCCATCCTC-3′ (forward, SEQ ID NO. 9) and 5′-[…]-3′ (reverse, SEQ ID NO. 10). Real-time PCR was performed in a Gene Amp 7900® Sequence Detection System SDS (Applied Biosystems, Foster City, Calif., USA) using SYBR® Green PCR Master Mix Applied Biosystems. The relative gene expression is the comparative CT method. Each sample was normalized on the basis of its GAPDH content according to the formula 2^−ΔΔCT.

JAK/STAT signaling = details: Samardzija et al. 2006; cited from earlier work
IL-6 = IL-6 protein production in ARPE-19 cell culture supernatants by ELISA; assay type: cell-based, human; details: TA 25 μM, 10 mJ/cm^2 UVB, 24 hours, ARPE-19 cells
Protocol: as §1, §2
ARPE-19 cells were plated about 200,000 cells in a 3-cm dish and cultured for 18-24 hours. Cells were exposed to UVB radiation for 24 hours, 1 ml aliquots of cell culture supernatants were drawn off and frozen at −80° C. ELISAs were carried out with the OptEIA human IL-6 ELISA kit (BD Pharmingen) according to the manufacturer's instructions. […] Freshly diluted rIL-6 which is useful as a standard control was used to generate a standard curve on each plate analyzed. Plates were read at 450 nm using a spectrophotometric plate reader. […]

Structure (SMILES) | STAT3 phosphorylation on Tyr705 (phospho-STAT3(Tyr705); AG490 40 μM, data not shown) | UVB-induced CFB mRNA expression (CFB mRNA) | JAK/STAT signaling (JAK/STAT signaling) | retinal degeneration after bright light exposure (JAK/STAT signaling) | attenuation of UVB-induced IL-6 protein production (IL-6) | UVB-induced STAT3 phosphorylation on Tyr705 (phospho-STAT3(Tyr705); TA 25 μM, UVB, 24 hours, ARPE-19 (RPE) cells) | STAT3 phosphorylation without UV radiation (phospho-STAT3(Tyr705); without UV radiation) | CFB expression without UV radiation (CFB mRNA; without UV radiation)
N#C/C(=C/c1ccc(O)c(O)c1)C(=O)NCc1ccccc1 [AG490, reference compound] | inhibit | partly attenuated | inhibit | prevent | – | – | – | –
O=C(OC[C@H]1O[C@@H](OC(=O)c2cc(O)c(O)c(OC(=O)c3cc(O)c(O)c(O)c3)c2)[C@H](OC(=O)c2cc(O)c(O)c(OC(=O)c3cc(O)c(O)c(O)c3)c2)[C@@H](OC(=O)c2cc(O)c(O)c(OC(=O)c3cc(O)c(O)c(O)c3)c2)[C@@H]1OC(=O)c1cc(O)c(O)c(OC(=O)c2cc(O)c(O)c(O)c2)c1)c1cc(O)c(O)c(OC(=O)c2cc(O)c(O)c(O)c2)c1 [TA, Tannic acid] | – | attenuate | – | – | approximately 40% | substantially attenuated | reduce | reduce
